The text below walks through data of US6949648B2, “Condensed pyrazole derivatives, process for producing the same and use thereof” (Takeda Pharmaceutical Company Limited, priority 2000, dated 2005).

Read-outs that look alike come from different tables or passages of the source.

The target in one data set is T1, human COX-2 (Homo sapiens, UniProt P35354).
T1 construct: made in house; host or cells: Sf-21 insect cells (recombinant baculovirus BAC-COX2, pFASTBAC1); microsome fraction
T1 sequence (P35354 18-604): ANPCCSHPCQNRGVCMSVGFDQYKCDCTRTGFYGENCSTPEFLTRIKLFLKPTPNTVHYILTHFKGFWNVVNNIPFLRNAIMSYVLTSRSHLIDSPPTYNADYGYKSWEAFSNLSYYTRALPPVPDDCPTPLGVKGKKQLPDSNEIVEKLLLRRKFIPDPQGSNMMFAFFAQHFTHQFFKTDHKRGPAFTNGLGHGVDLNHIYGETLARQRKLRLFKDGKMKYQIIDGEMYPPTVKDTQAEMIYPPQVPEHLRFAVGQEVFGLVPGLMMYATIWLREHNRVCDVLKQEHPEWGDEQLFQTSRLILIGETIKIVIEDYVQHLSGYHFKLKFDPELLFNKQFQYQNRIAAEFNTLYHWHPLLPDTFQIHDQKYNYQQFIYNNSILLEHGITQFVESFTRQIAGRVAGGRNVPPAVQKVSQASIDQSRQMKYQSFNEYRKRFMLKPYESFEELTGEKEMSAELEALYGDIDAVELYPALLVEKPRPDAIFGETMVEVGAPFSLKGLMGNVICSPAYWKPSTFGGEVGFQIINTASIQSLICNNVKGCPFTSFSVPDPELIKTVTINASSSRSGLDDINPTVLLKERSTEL
The data set is described as follows: Determination of COX-2 inhibitory activity (microsome fraction, chemiluminescence). It is filed as biochemical. The note with it: microsome fraction 20 μg, arachidonic acid, 37° C. 25 minutes preincubation; read-out: Repression rate IC50 (μM) COX-2. The method, then:
A 1.8 kb DNA fragment containing human COX-2 cDNA (Proc. Natl. Acad. Sci. U.S.A., vol. 89 (16), p. 7384-7388 (1992)) prepared by the PCR method was inserted into plasmid pFASTBAC1 (CIBCOBRAL) to obtain a plasmid pFBCOX2.
Using the plasmid pFBCOX2 and BAC-TO-BAC Baculovirus Expression System (GIBCOBRAL), a virus stock BAC-COX2 of the recombinant baculovirus was prepared.
Sf-21 cells were inoculated in 125 mL of LSf-900 II SFM medium (GIBCOBRAL) at a concentration of 1×10^6 cells/mL, and the medium was incubated at 27° C. for 24 hours. 0.75 mL of the virus stock BAC-COX2 of the recombinant baculovirus was added thereto, and was incubated further for 72 hours. The cells were separated from the medium by centrifugation (3000 rpm, 10 min), and washed with PBS twice. The cells were suspended in 10 mL of a Lysis buffer (0.1M Tris-HCl (pH 7.4), 5 mM EDTA), and were treated with a homogenizer (POLYTRON), three times at 20000 rpm for 20 seconds so that the cells were crushed. The supernatant thus obtained after centrifugation (2000 rpm, 10 minutes) was further centrifuged (40000 rpm, 45 minutes) to obtain a precipitate, which was resuspended in a Lysis buffer (0.1M Tris-HCl (pH 7.4), 5 mM EDTA), and the suspension was stored at −80° C.
Determination of COX-1 and COX-2 Inhibitory Activities
To a mixture of 20 μL of a reaction buffer previously concentrated 10 times (1M Tris-HCl (pH8.0), 50 mM EDTA, 1.0% Tween 20, 50 mM luminol, 100 μM hematin), 20 μL of the microsome fractions (COX-1: 40 μg, COX-2: 20 μg), and 55 μL of distilled water, a sample compound dissolved in DMF (5 μL) was added, and the mixture was left at 37° C. for 25 minutes. The reaction was started by the addition of 20 μM arachidonic acid (100 μL), and chemiluminescence amount during the 10-second period after the addition of arachidonic acid was determined by the use of Lumistar (BMG Lab technologies, GmbH). The inhibition rate was calculated, regarding that the enzyme activity when DMF ([…]) was added was 100%, and the enzyme activity when 4 mM flurbiprofen (5 μL) was added was 0%.

The subject of data set [1] is carrageenin edema of right hind limb plantar. As to the kind of experiment: Anti-inflammatory activity, carrageenin edema method. The data set is classed as in vivo, SD-rats. The note with it: po. Summed up:
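Male 6-week-old SD rats (n=6/group) dosed orally with sample, then 5 mL water; controls got solvent only. One hour later, 0.05 mL 1% carrageenin was injected subcutaneously into the right hind paw. Paw volume measured before and 2 and 3 h after injection; % inhibition versus control calculated.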
Background: In the carrageenan paw model, swelling and tenderness develop within hours.

Data set [2] deals with mucosa of small intestine. As to the kind of experiment: Disorder of mucosa of small intestine. It is filed as in vivo, SD rats. The conditions noted are these: 300 mg/kg orally, freely fed rats, 6 hours after dosing. As to the method:
Disorder of Mucosa of Small Intestine Male SD origin male-rats (7 weeks old, CLEA Japan) were used. To the rats freely fed, samples were administered orally (5 mL/kg, b.w.). After 5.5 hours from the administration, Evan's Blue (0.5% Evan's Blue/saline) was injected (1 mL/rat) intravenously under no anesthesia. After 30 minutes from the shot, the intestine was removed by celiotomy and the area thereof facing mesentery was cut open. After removal of intestinal content, the spots in the intestine dyed by Evan's Blue were measured under a stereomicroscope, and the total length (mm) of the spots was determined by a counter and recorded.

Where [3] appears, read: 10 mg/kg orally, 2 hr after carrageenin injection, read-out: Repression rate (%) Dosage 10 mg/kg 2 hr later.
The mark [4] stands for this setting: 10 mg/kg orally, 3 hr after carrageenin injection, read-out: Repression rate (%) Dosage 10 mg/kg 3 hr later.

`O=c1c2ccccc2[nH]c2c1cnn2-c1ccccn1` [Example 2-159, 1-(2-Pyridinyl)-1,9-dihydro-4H-pyrazolo[3,4-b]quinolin-4-one] yielded a melting point of 240 to 242 °C. In addition, the IC50 on human COX-2 came to 1.37 µM. Moreover, the inhibition in vivo at 10 mg/kg in data set [1] (setting [3]) was found to be 50%. Besides, the inhibition in vivo at 10 mg/kg in data set [1] (setting [4]) was found to be 39%. Further, the “Total length of dyed spots (mm)” value in data set [2] is recorded as 0 (300 mg/kg) mm.

In the case of `CCCOc1c2ccccc2nc2c1c(C)nn2-c1ccccn1` [Example 2-17, 3-Methyl-4-propoxy-1-(2-pyridinyl)-1H-pyrazolo[3,4-b]quinoline], at human COX-2, the IC50 worked out at 49.2 µM. For the same compound, the inhibition in vivo at 10 mg/kg in data set [1] (setting [3]) turned out to be 45%; in data set [1] (setting [4]), 37%. Further, the “Total length of dyed spots (mm)” value in data set [2] was 0 (300 mg/kg) mm.

For the compound `Cc1nn(-c2ccccn2)c2nc3ccccc3c(OC3CCCC3)c12` [Example 2-21, 4-Cyclopentyloxy-3-methyl-1-(2-pyridinyl)-1H-pyrazolo[3,4-b]quinoline], the IC50 at human COX-2 came out at 86 µM. Besides, the values for the inhibition in vivo at 10 mg/kg in data set [1] (setting [3]) and in data set [1] (setting [4]) were 52% and 45%, respectively.

`CCCNc1c2ccccc2nc2c1c(C)nn2-c1ccccn1` [Example 2-6, N-[3-Methyl-1-(2-pyridinyl)-1H-pyrazolo[3,4-b]quinolin-4-yl]-N-propylamine] returned a melting point of 121 to 122 °C. The IC50 on human COX-2 is 65.1 µM. The inhibition in vivo at 10 mg/kg in data set [1] (setting [3]) was 43%. Also, the inhibition in vivo at 10 mg/kg in data set [1] (setting [4]) amounted to 35%.

The compound `Cc1nn(-c2ccccn2)c2[nH]c3cccc(F)c3c(=O)c12.Cl` [Example 2-79, 5-Fluoro-3-methyl-1-(2-pyridinyl)-1,9-dihydro-4H-pyrazolo[3,4-b]quinolin-4-one hydrochloride] had a melting point greater than 380 °C. In addition, the IC50 on human COX-2 came to 3.7 µM. Moreover, the inhibition in vivo at 10 mg/kg in data set [1] (2 h, read-out: Repression rate (%) Dosage 10 mg/kg 2 hr later) is 37%. In addition, in data set [1] (3 h, read-out: Repression rate (%) Dosage 10 mg/kg 3 hr later), the inhibition in vivo at 10 mg/kg stood at 33%. In addition, the “Total length of dyed spots (mm)” value in data set [2] is recorded as 0 (300 mg/kg) mm.

By IC50 is commonly meant the midpoint of a concentration-inhibition curve. A word on the melting point: it is the temperature, or range, at which the solid turns liquid.
